{"source": "patent US5525626A", "about": "(priority 1989, dated 1996)", "assay_in_all_cases": "3H-thymidine assay", "type_in_all_cases": "cell-based", "key": {"[1]": {"system": "Tp 242 MG glioblastoma cells", "conditions": "Homo sapiens"}, "[2]": {"system": "Tp 483 MG glioblastoma cells"}, "[3]": {"system": "Tp 410 N neuroblastoma cells", "conditions": "Homo sapiens, Neuroblastoma cell"}, "HCV cells": {"system": "HCV cells"}, "G-361 melanoma cells": {"system": "G-361 melanoma cells", "conditions": "Homo sapiens"}, "[4]": {"conditions": "read-out: 3H-thymidine insertion (%) of control"}, "[5]": {"conditions": "read-out: active substance concentration at which 3H-thymidine insertion was 50% inhibited"}, "[6]": {"conditions": "read-out: 3H-thymidine tracer (%) of control"}, "[7]": {"conditions": "G-361, read-out: 3H-thymidine tracer (%) of control"}}}
{"smiles": "O=c1ccc2cc(O[C@@H]3O[C@H](CO)[C@@H](O)[C@H](O)[C@H]3O)c(O)cc2o1", "note": "[Esculin, 6-beta-D-glucopyranosyloxy-7-hydroxy-1,2-benzopyrone]", "values": [{"measurement": "activity at 1 µM", "setting": "[1]; [4]", "result": 100, "unit": "%"}, {"measurement": "activity at 2 µM", "setting": "[1]; [4]", "result": 98, "unit": "%"}, {"measurement": "activity at 4 µM", "setting": "[1]; [4]", "result": 95, "unit": "%"}, {"measurement": "activity at 8 µM", "setting": "[1]; [4]", "result": 81, "unit": "%"}, {"measurement": "activity at 16 µM", "setting": "[1]; [4]", "result": 73, "unit": "%"}, {"measurement": "activity at 25 µM", "setting": "[1]; [4]", "result": 68, "unit": "%"}, {"measurement": "activity at 50 µM", "setting": "[1]; [4]", "result": 65, "unit": "%"}, {"measurement": "activity at 100 µM", "setting": "[1]; [4]", "result": 61, "unit": "%"}, {"measurement": "activity at 250 µM", "setting": "[1]; [4]", "result": 53, "unit": "%"}, {"measurement": "activity at 500 µM", "setting": "[1]; [4]", "result": 49, "unit": "%"}, {"measurement": "IC50", "setting": "[1]; [5]", "result": 500, "unit": "µM"}, {"measurement": "activity at 1 µM", "setting": "[2]; [4]", "result": 99, "unit": "%"}, {"measurement": "activity at 2 µM", "setting": "[2]; [4]", "result": 97, "unit": "%"}, {"measurement": "activity at 4 µM", "setting": "[2]; [4]", "result": 89, "unit": "%"}, {"measurement": "activity at 8 µM", "setting": "[2]; [4]", "result": 83, "unit": "%"}, {"measurement": "activity at 16 µM", "setting": "[2]; [4]", "result": 74, "unit": "%"}, {"measurement": "activity at 25 µM", "setting": "[2]; [4]", "result": 66, "unit": "%"}, {"measurement": "activity at 50 µM", "setting": "[2]; [4]", "result": 54, "unit": "%"}, {"measurement": "activity at 100 µM", "setting": "[2]; [4]", "result": 51, "unit": "%"}, {"measurement": "activity at 250 µM", "setting": "[2]; [4]", "result": 48, "unit": "%"}, {"measurement": "activity at 500 µM", "setting": "[2]; [4]", "result": 45, "unit": "%"}, {"measurement": "IC50", "setting": "[2]; [5]", "result": 100, "unit": "µM"}, {"measurement": "activity at 1 µM", "setting": "[3]; [4]", "result": 100, "unit": "%"}, {"measurement": "activity at 2 µM", "setting": "[3]; [4]", "result": 96, "unit": "%"}, {"measurement": "activity at 4 µM", "setting": "[3]; [4]", "result": 85, "unit": "%"}, {"measurement": "activity at 8 µM", "setting": "[3]; [4]", "result": 76, "unit": "%"}, {"measurement": "activity at 16 µM", "setting": "[3]; [4]", "result": 69, "unit": "%"}, {"measurement": "activity at 25 µM", "setting": "[3]; [4]", "result": 62, "unit": "%"}, {"measurement": "activity at 50 µM", "setting": "[3]; [4]", "result": 54, "unit": "%"}, {"measurement": "activity at 100 µM", "setting": "[3]; [4]", "result": 43, "unit": "%"}, {"measurement": "activity at 250 µM", "setting": "[3]; [4]", "result": 38, "unit": "%"}, {"measurement": "activity at 500 µM", "setting": "[3]; [4]", "result": 30, "unit": "%"}, {"measurement": "IC50", "setting": "[3]; [5]", "result": 75, "unit": "µM"}, {"measurement": "activity at 1 µM", "setting": "HCV cells; [6]", "result": 100, "unit": "%"}, {"measurement": "activity at 2 µM", "setting": "HCV cells; [6]", "result": 98, "unit": "%"}, {"measurement": "activity at 4 µM", "setting": "HCV cells; [6]", "result": 95, "unit": "%"}, {"measurement": "activity at 8 µM", "setting": "HCV cells; [6]", "result": 89, "unit": "%"}, {"measurement": "activity at 16 µM", "setting": "HCV cells; [6]", "result": 86, "unit": "%"}, {"measurement": "activity at 25 µM", "setting": "HCV cells; [6]", "result": 83, "unit": "%"}, {"measurement": "activity at 50 µM", "setting": "HCV cells; [6]", "result": 79, "unit": "%"}, {"measurement": "activity at 250 µM", "setting": "HCV cells; [6]", "result": 76, "unit": "%"}, {"measurement": "activity at 500 µM", "setting": "HCV cells; [6]", "result": 75, "unit": "%"}, {"measurement": "IC50", "setting": "HCV cells; [5]", "result": "> 500", "unit": "µM"}, {"measurement": "activity at 1 µM", "setting": "G-361 melanoma cells; [7]", "result": 98, "unit": "%"}, {"measurement": "activity at 2 µM", "setting": "G-361 melanoma cells; [7]", "result": 94, "unit": "%"}, {"measurement": "activity at 4 µM", "setting": "G-361 melanoma cells; [7]", "result": 90, "unit": "%"}, {"measurement": "activity at 8 µM", "setting": "G-361 melanoma cells; [7]", "result": 86, "unit": "%"}, {"measurement": "activity at 16 µM", "setting": "G-361 melanoma cells; [7]", "result": 81, "unit": "%"}, {"measurement": "activity at 25 µM", "setting": "G-361 melanoma cells; [7]", "result": 74, "unit": "%"}, {"measurement": "activity at 50 µM", "setting": "G-361 melanoma cells; [7]", "result": 70, "unit": "%"}, {"measurement": "activity at 100 µM", "setting": "G-361 melanoma cells; [7]", "result": 63, "unit": "%"}, {"measurement": "activity at 250 µM", "setting": "G-361 melanoma cells; [7]", "result": 60, "unit": "%"}, {"measurement": "activity at 500 µM", "setting": "G-361 melanoma cells; [7]", "result": 54, "unit": "%"}, {"measurement": "IC50", "setting": "G-361 melanoma cells; G-361, read-out: active substance concentration at which 3H-thymidine insertion was 50% inhibited", "result": "> 500", "unit": "µM"}]}
